Results reported in US20140170096A1, “SUNSCREEN COMPOSITIONS” (priority 2011, published 2014).

Columns and labels:
[1] = test system: viruses in water surrounding coral nubbins; assay: Viral abundance and viral enrichment in seawater surrounding coral nubbins (microcosm incubation); details: for Total viral abundances (TVN): seawater surrounding Acropora sp. nubbins, compound concentration per Table 2; for Viral enrichment factor (VEF): ratio of viral abundances, end vs start of incubation
Procedure: (§1) In situ tests were performed on nubbins (i.e., small branches of about 3-6 cm) of the stony coral Acropora sp. The nubbins were incubated in microcosms in presence of known concentrations of various ingredients potentially to be included in the composition of the eco-compatible sunscreen cream. In particular, coral nubbins (including more than 3000 polyps each) were collected by scuba divers from the same colony, located at a depth of about 3 m on the edge of the reef slope. Sampling of nubbins was performed by means of forceps. The nubbins were washed with seawater filtered onto 0.02-μm filters to eliminate viruses and prokaryotes. Each microcosm was prepared with a replicate set of nubbins (n=3) immersed in sterile polyethylene bags (Whirl-pack, Nasco, Fort Atkinson, Wis., USA) filled with 2 L filtered seawater. A total of 27 microcosms were prepared, in order to test 20 ingredients with the respective positive and negative controls. The microcosms were incubated at in situ temperature and light conditions for 72 hours.
(§2) After subsampling, sea water was transferred into sterile test tubes without use of fixatives and stored at −20° C. until laboratory analysis for quantification of viral and prokaryotic abundance. Once in laboratory, the water samples were immediately processed. Briefly, 200 uL sea water were diluted 1:10 with prefiltered MilliQ water, through 0.02-μm pore filters (Anodisc filter; 25-mm diameter, Al2O3; Whatman) and stained with 20 μL SYBR Green (stock solution diluted 1:20; Invitrogen, Carlsbad, Calif., USA). […] Slides were stored at −20° C. until microscopy analysis. Virus and prokaryote counts were obtained by epifluorescence microscopy (magnification, ×1000; Zeiss Axioplan) by examining at least 10 optical fields, that is, at least 200 cells or viruses per replicate. Viral (and prokaryotic) enrichment was calculated as ratio between virus (and prokaryote) abundances and virus (and prokaryote) abundance at the […] of the experiment.

[2] = test system: prokaryotes in water surrounding coral nubbins; assay: Prokaryotic (bacterial) abundance and enrichment in seawater surrounding coral nubbins (microcosm incubation); details: seawater surrounding Acropora sp. nubbins
Procedure: as §1, §2

[3] = test system: symbiotic zooxanthellae released from coral nubbins; assay: Zooxanthellae counts: zooxanthellae released in water surrounding coral nubbins; assay type: in vivo, Acropora sp.; details: for Healthy zooxanthellae released / Pale zooxanthellae released / Total zooxanthellae released / Transparent (i.e., dead) zooxanthellae released: end of incubation (72 h); for Percentage of healthy zooxanthellae released / Percentage of pale zooxanthellae released / Percentage of transparent zooxanthellae released: of total released, end of incubation
Procedure: as §1
Subsamples (50 mL) of seawater surrounding coral nubbins were collected at the start of the experiment (T0) and after 6, 12, 24, 36, 48 and 72 hours of incubation. The subsamples were fixed in 3% glutaraldehyde and then about 6.0 ml of each replicate was filtered through 2.0-μm polycarbonate filters. Filters were mounted on glass slides and zooxanthellae counted under epifluorescence microscopy (Zeiss Axioplan, Carl Zeiss Inc., Jena, Germany; ×400 and ×1000) using standard and UV light.

[4] = test system: stony coral Acropora sp. nubbins; assay: Quantification of coral bleaching by colorimetric (CMYK) analysis of digital photographs; assay type: in vivo; details: Acropora sp. (stony coral), in vivo, 72 h
Procedure: as §1
Photographs were taken under identical illumination with a Canon PowerShot A620 digital camera (Canon Inc., Tokyo, Japan) with a scale meter on the background. The photos were successively analyzed with a photo-editing software (Adobe Photoshop CS2) for color composition [cyan, magenta, yellow, black (CMYK)]. Levels of bleaching were measured as the difference between the corals' color at the beginning of the experiment and after treatments. Variations in the percentage of the different color components (CMYK) were analyzed with one-way analysis of variance (ANOVA). To rank the bleaching effect due to the compounds tested, a Bray-Curtis similarity matrix was prepared and a multidimensional scaling analysis of the shifts in CMYK color composition of treated corals was performed using Primer 5.0 software (Primer-E Ltd., Plymouth, UK). Bleaching rates were measured as the dissimilarity percentage in CMYK color composition between treated and control corals using the SIMPER tool of Primer 5.0 software (Primer-E Ltd).

coral reefs = assay: Summary of eco-compatibility of tested products with coral reefs; parameters: species or system Acropora sp.
Procedure: In order to select the most eco-compatible products for each group of compounds (i.e., base cream, fragrance, antioxidants and filters) the following criteria were selected:
1. coral bleaching level; 2. degree of release of symbiotic zooxanthellae; 3. zooxanthellae health conditions; 4. viral enrichment in the incubation medium with respect to controls.

Total viral abundances (TVN) ([1]; incubation 0 (start)) [viruses ml^−1] | Total viral abundances (TVN) ([1]; incubation 12 h) [viruses ml^−1] | Viral enrichment factor (VEF) [1] | Bacterial abundance (total bacterial number, TBN) ([2]; incubation 0 (start)) | Bacterial abundance (total bacterial number, TBN) ([2]; incubation 12 h) | Healthy zooxanthellae released [3] [cells ml^−1] | Pale zooxanthellae released [3] [cells ml^−1] | Total zooxanthellae released [3] [cells ml^−1] | Transparent (i.e., dead) zooxanthellae released [3] [cells ml^−1] | Percentage of healthy zooxanthellae released [3] [%] | Percentage of pale zooxanthellae released [3] [%] | Percentage of transparent zooxanthellae released [3] [%] | Number of color channels (of 4, CMYK) significantly altered [4] | Eco-compatibility (coral reefs) | Structure (SMILES)
2.47E+05 | 1.97E+06 | 8.09 | 3.62E+04 | 1.71E+06 | 6.04E+02 | 7.18E+03 | 1.46E+04 | 6.84E+03 | 4 | 49 | 47 | 1 | Compatible | CC1=C(/C=C/C(C)=C/C=C/C(C)=C/CO)C(C)(C)CCC1 [System D20, Retinol]
1.03E+05 | 1.98E+06 | 18.92 | 3.62E+04 | 1.54E+06 | 1.07E+03 | 5.30E+03 | 1.23E+04 | 5.97E+03 | 9 | 43 | 48 | 1 | Compatible | CCCCCCCCCCCCCCCC(=O)OC/C=C(C)/C=C/C=C(C)/C=C/C1=C(C)CCCC1(C)C [System D19, retinyl palmitate]
